Experimental data reported in PubChem BioAssay AID1259411 (Chemical Carcinogenesis Research Information System (CCRIS), 2018).
Calls of active or inactive are those of the source. How the calls were made is not given here.

System: rodent carcinogenicity bioassays, tumor incidence
Experiment: CCRIS carcinogenicity studies
Method in brief: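 Archive of carcinogenicity, mutagenicity, tumor promotion and tumor inhibition results drawn from journals, NCI reports and other sources, expert-reviewed; covers 1985-2011 and is no longer updated.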

Measured: carcinogen call

O=NN1CCCCCC1
active: Species: MOUSE, Strain/Sex: NZB/FEMALE, Route: ORAL, Dose: 0, 1.56 NMOL IN DRINKING WATER 5D/WK FOR 8 WK FOR A TOTAL DOSE OF 0, 6.4 MILLIMOLAR/KG (STUDY DURATION: 400-600 D), Dose: 0, 1.56 NMOL IN DRINKING WATER 5D/WK FOR 8 WK FOR A TOTAL DOSE OF 0, 6.4 MILLIMOLAR/KG (STUDY DURATION: 400-600 D), Tumor Site: Type of Lesion: OROPHARYNX: PAPILLOMA OR CARCINOMA, ESOPHAGUS: PAPILLOMA OR CARCINOMA, STOMACH: SQUAMOUS CELL CARCINOMA, LIVER: HEPATOCE, Tumor Site: Type of Lesion: OROPHARYNX: PAPILLOMA OR CARCINOMA, ESOPHAGUS: PAPILLOMA OR CARCINOMA, STOMACH: SQUAMOUS CELL CARCINOMA, LIVER: HEPATOCE active; positive | Species: MOUSE, Strain/Sex: NZB/MALE, Route: ORAL, Dose: 0, 1.56 NMOL IN DRINKING WATER 5D/WK FOR 8 WK FOR A TOTAL DOSE OF 0, 5.4 MILLIMOLAR/KG (STUDY DURATION: 400-600 D), Dose: 0, 1.56 NMOL IN DRINKING WATER 5D/WK FOR 8 WK FOR A TOTAL DOSE OF 0, 5.4 MILLIMOLAR/KG (STUDY DURATION: 400-600 D), Tumor Site: Type of Lesion: ESOPHAGUS: PAPILLOMA OR CARCINOMA, STOMACH: SQUAMOUS CELL CARCINOMA, LIVER: HEPATOCELLULAR TUMOR, LUNG: ALVEOLAR ADENOMA, Tumor Site: Type of Lesion: ESOPHAGUS: PAPILLOMA OR CARCINOMA, STOMACH: SQUAMOUS CELL CARCINOMA, LIVER: HEPATOCELLULAR TUMOR, LUNG: ALVEOLAR ADENOMA active; positive | Species: MOUSE, Strain/Sex: NZC/FEMALE, Route: ORAL, Dose: 0, 1.56 NMOL IN DRINKING WATER 5D/WK FOR 8 WK FOR A TOTAL DOSE OF 0, 5.3 MILLIMOLAR/KG (STUDY DURATION: 600-800 D), Dose: 0, 1.56 NMOL IN DRINKING WATER 5D/WK FOR 8 WK FOR A TOTAL DOSE OF 0, 5.3 MILLIMOLAR/KG (STUDY DURATION: 600-800 D), Tumor Site: Type of Lesion: ESOPHAGUS: CARCINOMA OR PAPILLOMA, STOMACH: SQUAMOUS CELL CARCINOMA, LIVER: HEPATOCELLULAR TUMOR, Tumor Site: Type of Lesion: ESOPHAGUS: CARCINOMA OR PAPILLOMA, STOMACH: SQUAMOUS CELL CARCINOMA, LIVER: HEPATOCELLULAR TUMOR active; positive | Species: MOUSE, Strain/Sex: NZC/MALE, Route: ORAL, Dose: 0, 1.56 NMOL IN DRINKING WATER 5D/WK FOR 8 WK FOR A TOTAL DOSE OF 0, 6 MILLIMOLAR/KG (STUDY DURATION: 600-800 D), Dose: 0, 1.56 NMOL IN DRINKING WATER 5D/WK FOR 8 WK FOR A TOTAL DOSE OF 0, 6 MILLIMOLAR/KG (STUDY DURATION: 600-800 D), Tumor Site: Type of Lesion: OROPHARYNX: PAPILLOMA OR CARCINOMA, ESOPHAGUS: PAPILLOMA OR CARCINOMA, STOMACH: SQUAMOUS CELL CARCINOMA, LIVER: HEPATOCE, Tumor Site: Type of Lesion: OROPHARYNX: PAPILLOMA OR CARCINOMA, ESOPHAGUS: PAPILLOMA OR CARCINOMA, STOMACH: SQUAMOUS CELL CARCINOMA, LIVER: HEPATOCE active; positive | Species: MOUSE, Strain/Sex: NZO/FEMALE, Route: ORAL, Dose: 0, 1.56 NMOL IN DRINKING WATER 5D/WK FOR 8 WK FOR A TOTAL DOSE OF 0: 6.3 MILLIMOLAR/KG (STUDY DURATION: 600-800 D), Tumor Site: Type of Lesion: OROPHARYNX: PAPILLOMA OR CARCINOMA, ESOPHAGUS: PAPILLOMA OR CARCINOMA, STOMACH: SQUAMOUS CELL CARCINOMA, LIVER: HEPATOCE, Tumor Site: Type of Lesion: OROPHARYNX: PAPILLOMA OR CARCINOMA, ESOPHAGUS: PAPILLOMA OR CARCINOMA, STOMACH: SQUAMOUS CELL CARCINOMA, LIVER: HEPATOCE active; positive | Species: MOUSE, Strain/Sex: NZO/FEMALE, Route: ORAL, Dose: 0, 50 MG/L IN DRINKING WATER 5 D/WK FOR 32 WK (TOTAL DOSE: 52 MG) (STUDY DURATION: 1.5 YR), Tumor Site: Type of Lesion: OROPHARYNX: SQUAMOUS CELL CARCINOMA, SQUAMOUS CELL ADENOMA, STOMACH: SQUAMOUS CELL CARCINOMA, SQUAMOUS CELL ADENOMA, ESO, Tumor Site: Type of Lesion: OROPHARYNX: SQUAMOUS CELL CARCINOMA, SQUAMOUS CELL ADENOMA, STOMACH: SQUAMOUS CELL CARCINOMA, SQUAMOUS CELL ADENOMA, ESO active; positive | Species: MOUSE, Strain/Sex: NZO/FEMALE, Route: ORAL, Dose: 0, 200 MG/L IN DRINKING WATER 5 D/WK FOR 8 WK (TOTAL DOSE: 52 MG) (STUDY DURATION: 2 YR), Tumor Site: Type of Lesion: OROPHARYNX: SQUAMOUS CELL CARCINOMA, SQUAMOUS CELL ADENOMA, STOMACH: SQUAMOUS CELL CARCINOMA, SQUAMOUS CELL ADENOMA, ESO, Tumor Site: Type of Lesion: OROPHARYNX: SQUAMOUS CELL CARCINOMA, SQUAMOUS CELL ADENOMA, STOMACH: SQUAMOUS CELL CARCINOMA, SQUAMOUS CELL ADENOMA, ESO active; positive | Species: MOUSE, Strain/Sex: NZO/MALE, Route: ORAL, Dose: 0, 1.56 NMOL IN DRINKING WATER 5D/WK FOR 8 WK FOR A TOTAL DOSE OF 0, 6.1 MILLIMOLAR/KG (STUDY DURATION: 600-800 D), Dose: 0, 1.56 NMOL IN DRINKING WATER 5D/WK FOR 8 WK FOR A TOTAL DOSE OF 0, 6.1 MILLIMOLAR/KG (STUDY DURATION: 600-800 D), Tumor Site: Type of Lesion: OROPHARYNX: PAPILLOMA OR CARCINOMA, ESOPHAGUS: PAPILLOMA OR CARCINOMA, STOMACH: SQUAMOUS CELL CARCINOMA, LIVER: HEPATOCE, Tumor Site: Type of Lesion: OROPHARYNX: PAPILLOMA OR CARCINOMA, ESOPHAGUS: PAPILLOMA OR CARCINOMA, STOMACH: SQUAMOUS CELL CARCINOMA, LIVER: HEPATOCE active; positive | Species: MOUSE, Strain/Sex: NZO/MALE, Route: ORAL, Dose: 0, 50 MG/L IN DRINKING WATER 5 D/WK FOR 52 WK (TOTAL DOSE: 52 MG) (STUDY DURATION: 1.5 YR), Tumor Site: Type of Lesion: OROPHARYNX: SQUAMOUS CELL CARCINOMA, SQUAMOUS CELL ADENOMA, STOMACH: SQUAMOUS CELL CARCINOMA, SQUAMOUS CELL ADENOMA, ESO, Tumor Site: Type of Lesion: OROPHARYNX: SQUAMOUS CELL CARCINOMA, SQUAMOUS CELL ADENOMA, STOMACH: SQUAMOUS CELL CARCINOMA, SQUAMOUS CELL ADENOMA, ESO active; positive | Species: MOUSE, Strain/Sex: NZO/MALE, Route: ORAL, Dose: 0, 200 MG/L IN DRINKING WATER 5 D/WK FOR 8 WK (TOTAL DOSE: 52 MG) (STUDY DURATION: 2 YR), Tumor Site: Type of Lesion: OROPHARYNX: SQUAMOUS CELL CARCINOMA, SQUAMOUS CELL ADENOMA, STOMACH: SQUAMOUS CELL CARCINOMA, SQUAMOUS CELL ADENOMA, ESO, Tumor Site: Type of Lesion: OROPHARYNX: SQUAMOUS CELL CARCINOMA, SQUAMOUS CELL ADENOMA, STOMACH: SQUAMOUS CELL CARCINOMA, SQUAMOUS CELL ADENOMA, ESO active; positive | Species: MOUSE, Strain/Sex: NZY/FEMALE, Route: ORAL, Dose: 0, 1.56 NMOL IN DRINKING WATER 5D/WK FOR 8 WK FOR A TOTAL DOSE OF 0, 5.2 MILLIMOLAR/KG (STUDY DURATION: 600-800 D), Dose: 0, 1.56 NMOL IN DRINKING WATER 5D/WK FOR 8 WK FOR A TOTAL DOSE OF 0, 5.2 MILLIMOLAR/KG (STUDY DURATION: 600-800 D), Tumor Site: Type of Lesion: ESOPHAGUS: PAPILLOMA OR CARCINOMA, STOMACH: SQUAMOUS CELL CARCINOMA active; positive | Species: MOUSE, Strain/Sex: NZY/MALE, Route: ORAL, Dose: 0, 1.56 NMOL IN DRINKING WATER 5D/WK FOR 8 WK FOR A TOTAL DOSE OF 0, 5.4 MILLIMOLAR/KG (STUDY DURATION: 600-800 D), Dose: 0, 1.56 NMOL IN DRINKING WATER 5D/WK FOR 8 WK FOR A TOTAL DOSE OF 0, 5.4 MILLIMOLAR/KG (STUDY DURATION: 600-800 D), Tumor Site: Type of Lesion: ESOPHAGUS: PAPILLOMA OR CARCINOMA, STOMACH: SQUAMOUS CELL CARCINOMA, LIVER: HEPATOCELLULAR TUMOR, Tumor Site: Type of Lesion: ESOPHAGUS: PAPILLOMA OR CARCINOMA, STOMACH: SQUAMOUS CELL CARCINOMA, LIVER: HEPATOCELLULAR TUMOR active; positive | Species: RAT, Strain/Sex: F344/FEMALE, Route: ORAL, Dose: 0.9 MM (112 MG/L) IN DRINKING WATER 5/WK FOR 28 WK, Tumor Site: Type of Lesion: LIVER: CARCINOMA, SARCOMA, ESOPHAGUS: PAPILLOMA, CARCINOMA active; positive

COc1ccc([C@H]2O[C@H]2C)cc1
active: Species: MOUSE, Strain/Sex: B6C3F1/MALE, Route: INTRAPERITONEAL, Dose: 0, 0.25, 0.5 UMOL/G BW ONCE (STUDY DURATION: 10-11 MONTHS), Dose: 0, 0.25, 0.5 UMOL/G BW ONCE (STUDY DURATION: 10-11 MONTHS), Tumor Site: Type of Lesion: LIVER: HEPATOMA active; positive | Species: MOUSE, Strain/Sex: CD-1/FEMALE, Route: DERMAL, Dose: 0, 5 UMOL 1X/WK FOR 3 WK BEGINNING 24 HR POST FIRST TPA DOSE (2.5 UG IN 0.1 ML ACETONE), FOLLOWED BY 2.5 UG TPA IN 0.1 M, Tumor Site: Type of Lesion: SKIN: PAPILLOMA active; positive
